This is an account of results in US10315996B2, “ROR gamma (RORγ) modulators” (LEAD PHARMA HOLDING B.V., priority 2015, dated 2019).

Some results are limits rather than exact numbers.

The experiment concerns the target T1, RORγ (Homo sapiens, UniProt P51449).
T1 construct: expressed in transfected cells; host or cells: 293FT cells (Invitrogen), expression vector pFN26A (Promega)
T1 sequence (P51449 269-508 limits assumed): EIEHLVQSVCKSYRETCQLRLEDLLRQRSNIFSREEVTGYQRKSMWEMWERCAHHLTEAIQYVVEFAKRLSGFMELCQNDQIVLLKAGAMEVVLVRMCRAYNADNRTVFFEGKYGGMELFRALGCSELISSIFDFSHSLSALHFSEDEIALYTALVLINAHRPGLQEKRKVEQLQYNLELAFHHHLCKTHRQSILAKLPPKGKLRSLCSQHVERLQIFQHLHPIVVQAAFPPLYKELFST
In words: RORγ GAL4 reporter gene assay. The format is cell-based. The settings on record: inhibition of RORγ activity, GAL4-RORγ-LBD luciferase reporter in 293FT cells, overnight incubation; read-out: mean pIC50 (converted). The essentials:
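293FT cells were transiently co-transfected with GAL4-DBD–RORγ-LBD (or GAL4-VP16 control) and a 9×UAS luc2P reporter, then plated at 60,000 cells/well. Compound was added at final 0.2% DMSO for 16-24 h at 37 °C, and inhibition was measured by firefly luciferase luminescence.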
On the technique in general: Reporter assays use an easily measured gene product as a stand-in for the process of interest.

Consider `CCCN(C(=O)c1ccc(NC(=O)Cc2ccc(S(=O)(=O)CC3CC3)cc2)cc1)c1cc(C)nn1C` [Example 86, 4-[2-(4-cyclopropylmethanesulfonylphenyl)acetamido]-N-(1,3-dimethyl-1H-pyrazol-5-yl)-N-propylbenzamide], for which the IC50 was no more than 10 nM.
As for `CCCN(C(=O)c1ccc(NC(=O)Cc2ccc(S(=O)(=O)CC3CC3)cc2)cc1)c1cc(C)on1` [Example 87, 4-[2-(4-cyclopropylmethanesulfonylphenyl)acetamido]-N-(5-methyl-1,2-oxazol-3-yl)-N-propylbenzamide], the figure is no more than 10 nM; as for `CCN(C(=O)c1ccc(NC(=O)Cc2ccc(S(=O)(=O)CC3CC3)cc2)cc1)c1cc(C)nn1C` [Example 88, 4-[2-(4-cyclopropylmethanesulfonylphenyl)acetamido]-N-(1,3-dimethyl-1H-pyrazol-5-yl)-N-ethylbenzamide], no more than 10 nM; as for `CCN(C(=O)c1ccc(NC(=O)Cc2ccc(S(=O)(=O)CC3CC3)cc2)cc1)c1cc(C)on1` [Example 89, 4-[2-(4-cyclopropylmethanesulfonylphenyl)acetamido]-N-ethyl-N-(5-methyl-1,2-oxazol-3-yl)benzamide], no more than 10 nM.
On to `Cc1cc(N(C)C(=O)c2ccc(NC(=O)Cc3ccc(S(=O)(=O)CC4CC4)cc3)cc2)no1` [Example 90, 4-[2-(4-cyclopropylmethanesulfonylphenyl)acetamido]-N-methyl-N-(5-methyl-1,2-oxazol-3-yl)benzamide], for which the IC50 was no more than 10 nM.
The same measure for `Cc1cc(N(C)C(=O)c2ccc(NC(=O)Cc3ccc(S(=O)(=O)NC4CC4)cc3)cc2)no1` [Example 91, 4-{2-[4-(cyclopropylsulfamoyl)phenyl]acetamido}-N-methyl-N-(5-methyl-1,2-oxazol-3-yl)benzamide]: no more than 1000 nM; for `CCCN(C(=O)c1ccc(NC(=O)Cc2ccc(S(=O)(=O)NC3CC3)cc2)cc1)c1cc(C)nn1C` [Example 92, 4-{2-[4-(cyclopropylsuIfamoyl)phenyl]acetamido}-N-(1,3-dimethyl-1H-pyrazol-5-yl)-N-propylbenzamide]: no more than 10 nM; for `CCCN(C(=O)c1ccc(NC(=O)Cc2ccc(S(=O)(=O)NC3CC3)cc2)cc1)c1cc(C)on1` [Example 93, 4-{2-[4-(cyclopropylsulfamoyl)phenyl]acetamido}-N-(5-methyl-1,2-oxazol-3-yl)-N-propylbenzamide]: no more than 10 nM.
As for `CCN(C(=O)c1ccc(NC(=O)Cc2ccc(S(=O)(=O)CC3CC3)cc2)cc1)c1cc(C)no1` [Example 94, 4-[2-(4-cyclopropylmethanesulfonylphenyl)acetamido]-N-ethyl-N-(3-methyl-1,2-oxazol-5-yl)benzamide], the figure is no more than 10 nM.
As for `CCN(C(=O)c1ccc(NC(=O)Cc2ccc(S(=O)(=O)NC3CC3)cc2)cc1)c1cc(C)no1` [Example 95, 4-{2-[4-(cyclopropylsulfamoyl)phenyl]acetamido}-N-ethyl-N-(3-methyl-1,2-oxazol-5-yl)benzamide], the IC50 was no more than 100 nM.
The same measure for `CCN(C(=O)c1ccc(NC(=O)Cc2ccc(S(=O)(=O)CC3CC3)cc2)cc1)c1nnc(C)s1` [Example 96, 4-[2-(4-cyclopropylmethanesulfonylphenyl)acetamido]-N-ethyl-N-(5-methyl-1,3,4-thiadiazol-2-yl)benzamide]: no more than 100 nM.
The same measure for `CCN(C(=O)c1ccc(NC(=O)Cc2ccc(S(=O)(=O)NC3CC3)cc2)cc1)c1nnc(C)s1` [Example 97, 4-{2-[4-(cyclopropylsulfamoyl)phenyl]acetamido}-N-ethyl-N-(5-methyl-1,3,4-thiadiazol-2-yl)benzamide]: no more than 1000 nM.
As for `CCN(C(=O)c1ccc(NC(=O)Cc2ccc(S(=O)(=O)CC3CC3)cc2)cc1F)c1ccccc1` [Example 99, 4-[2-(4-cyclopropylmethanesulfonylphenyl)acetamido]-N-ethyl-2-fluoro-N-phenylbenzamide], the figure is no more than 10 nM.
